# Results as given in US7927821B2, “Methods of screening for compounds which bind G protein-coupled receptors” (Takeda Pharmaceutical Company Limited, priority 2004, dated 2011).
# How the values were obtained:
# [1] = tested on: pAKKO-111H-transfected cells (control); assay: SRE-luciferase reporter assay in pAKKO-111H-transfected HeLa cells for control (no receptor); conditions: 2 μM
# TGR25 = TGR25 (Homo sapiens, UniProt Q86Y34); assay: SRE-luciferase reporter assay in HeLa cells transiently expressing TGR25; assay type: cell-based; conditions: for luciferase activity in the TGR25-expressed cells (in words): 20 μM
# TGR25, sequence (Q86Y34 21-549): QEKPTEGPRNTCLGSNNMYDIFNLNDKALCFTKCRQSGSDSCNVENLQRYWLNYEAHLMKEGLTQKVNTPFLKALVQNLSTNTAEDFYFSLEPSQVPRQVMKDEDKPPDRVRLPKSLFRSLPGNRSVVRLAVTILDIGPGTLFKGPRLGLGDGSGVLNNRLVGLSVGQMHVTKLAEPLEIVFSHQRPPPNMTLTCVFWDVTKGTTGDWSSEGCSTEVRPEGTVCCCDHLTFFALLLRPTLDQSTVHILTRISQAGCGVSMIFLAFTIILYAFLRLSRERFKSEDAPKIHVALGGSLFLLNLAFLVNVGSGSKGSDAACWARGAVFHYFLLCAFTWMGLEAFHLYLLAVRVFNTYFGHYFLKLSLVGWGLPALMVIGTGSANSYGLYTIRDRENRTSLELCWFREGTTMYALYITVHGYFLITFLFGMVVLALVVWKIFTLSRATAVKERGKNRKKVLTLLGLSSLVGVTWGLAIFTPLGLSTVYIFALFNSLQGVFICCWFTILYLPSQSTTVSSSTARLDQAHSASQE
# HL-60 = assay: Differentiation of HL-60 cell line into neutrophil-like cells (CD11b/Mac-1, flow cytometry); assay type: cell-based, human; conditions: co-presence of 1.25% DMSO and AM251 (10 μM), 4 days
# Excerpt: Human leukocyte cell line (human acute promyelocytic leukemia cell-derived) HL-60 is known to differentiate into neutrophil-like cells by treatment with DMSO (dimethyl sulfoxide) (Blood, 70, 1233-1244 (1987)). Gene expression analysis based on EXAMPLE 3 confirmed the expression of the TGR25 in the cell line. Accordingly, the action of AM251 as an agonist of the TGR25 for differentiation of the cells was examined.
# After HL-60 cells in the growth phase were suspended in 10% fetal calf serum-containing RPMI 1640 medium, the cells were plated on a 12-well tissue culture plate (Becton Dickinson Japan) in 5×10^4 cells/well. […] Degree of cell differentiation was analyzed using a fluorescence-labeled antibody (PE-anti-human CD11b/Mac-1, Becton Dickinson Japan) on a flow cytometry (BD FACSVantage™, Becton Dickinson Japan), in terms of the expression level of a differentiation marker or cell surface antigen CD11b/Mac-1 as an indicator.
SMILES,luciferase activity in the pAKKO-111H-transfected cells for control (in words) [1],luciferase activity in the TGR25 expression cells (in words) (TGR25; 2 μM),"Increased luciferase activity (cps) in the TGR25 expression cells by AM251: TGR25 (TGR25; AM251 2 μM, 4 hours, HeLa cells, 0 μM gave 7527) [cps]",differentiation of HL-60 into neutrophil-like cells (HL-60),expression level of CD11b/Mac-1 (differentiation marker) (HL-60; versus DMSO alone),luciferase activity in the TGR25-expressed cells (in words) (TGR25),"Increase of Luciferase Activity in TGR25-Expressed Cells by AM281 (cps): TGR25 (TGR25; AM281 20 μM, 4 hours, HeLa cells, 0 μM gave 6113) [cps]","Increase of Luciferase Activity in TGR25-Expressed Cells by DH97 (cps): TGR25 (TGR25; DH97 20 μM, 4 hours, HeLa cells, 0 μM gave 2642) [cps]"
"Cc1c(C(=O)NN2CCCCC2)nn(-c2ccc(Cl)cc2Cl)c1-c1ccc(I)cc1 [AM251, 1-(2,4-dichlorophenyl)-5-(4-iodophenyl)-4-methyl-N-piperidin-1-yl-1H-pyrazole-3-carboxamide]",any significant increase in the activity was not detected,increased luciferase activity was detected,17897,acts promotively,further increased,–,–,–
"Cc1c(C(=O)NN2CCOCC2)nn(-c2ccc(Cl)cc2Cl)c1-c1ccc(I)cc1 [AM281, 1-(2,4-dichlorophenyl)-5-(4-iodophenyl)-4-methyl-N-morpholin-4-yl-1H-pyrazole-3-carboxamide]",–,–,–,–,–,the luciferase activity increased,9279,–
"CCCCC(=O)NCCc1c(Cc2ccccc2)[nH]c2ccccc12 [DH97, N-[2-(2-benzyl-1H-indol-3-yl)ethyl]pentanamide]",–,–,–,–,–,the luciferase activity increased,–,5674
